Results: patent US8501783B2, “Conformationally restricted urea inhibitors of soluble epoxide hydrolase” (The Regents of the University of California, priority 2006, dated 2013)
Read-outs that look alike come from different tables or passages of the source.

Legend:
[1] = Solubility in oil of the dosing preparation (compound in Crisco); assay type: physicochemical; details: appearance in oil, in parentheses after compound number
Source text: The dogs are fed immediately thereafter.

[2] = Pharmacokinetic screening in dogs, oral administration, plasma LC-MS/MS; details: for AUC: dog, plasma, po, 0.3 mg/kg; for AUCINF_D_pred / LC/MS analysis, plasma level at time 0 / LC/MS analysis, plasma level at time 15 / LC/MS analysis, plasma level at time 30 / LC/MS analysis, plasma level at time 60 / LC/MS analysis, plasma level at time 120 / LC/MS analysis, plasma level at time 180 / LC/MS analysis, plasma level at time 240 / LC/MS analysis, plasma level at time 300 / LC/MS analysis, plasma level at time 480 / LC/MS analysis, plasma level at time 1440 / LC/MS analysis, plasma level at time 360: dogs; for AUCINF_D_pred: oral, dose-normalised; for LC/MS analysis, plasma level at time 0 / LC/MS analysis, plasma level at time 15 / LC/MS analysis, plasma level at time 30 / LC/MS analysis, plasma level at time 60 / LC/MS analysis, plasma level at time 120 / LC/MS analysis, plasma level at time 180 / LC/MS analysis, plasma level at time 240 / LC/MS analysis, plasma level at time 300 / LC/MS analysis, plasma level at time 480 / LC/MS analysis, plasma level at time 1440 / LC/MS analysis, plasma level at time 360: single oral dose (0.3 mg/kg per FIG. 1); for LC/MS analysis, plasma level at time 0: time 0 min; for LC/MS analysis, plasma level at time 15: time 15 min; for LC/MS analysis, plasma level at time 30: time 30 min; for LC/MS analysis, plasma level at time 60: time 60 min; for LC/MS analysis, plasma level at time 120: time 120 min; for LC/MS analysis, plasma level at time 180: time 180 min; for LC/MS analysis, plasma level at time 240: time 240 min; for LC/MS analysis, plasma level at time 300: time 300 min; for LC/MS analysis, plasma level at time 480: time 480 min; for LC/MS analysis, plasma level at time 1440: time 1440 min; for LC/MS analysis, plasma level at time 360: time 360 min
[3] = target: human sEH (Homo sapiens (Human), UniProt P34913); assay: Inhibition of human soluble epoxide hydrolase (IC50; one of three substrate methods); assay type: biochemical;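 further: enzyme expressed in baculovirus and affinity-purified, assays run in triplicate, with substrate and read-out differing among the three methods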
Sequence of human sEH (P34913 whole entry): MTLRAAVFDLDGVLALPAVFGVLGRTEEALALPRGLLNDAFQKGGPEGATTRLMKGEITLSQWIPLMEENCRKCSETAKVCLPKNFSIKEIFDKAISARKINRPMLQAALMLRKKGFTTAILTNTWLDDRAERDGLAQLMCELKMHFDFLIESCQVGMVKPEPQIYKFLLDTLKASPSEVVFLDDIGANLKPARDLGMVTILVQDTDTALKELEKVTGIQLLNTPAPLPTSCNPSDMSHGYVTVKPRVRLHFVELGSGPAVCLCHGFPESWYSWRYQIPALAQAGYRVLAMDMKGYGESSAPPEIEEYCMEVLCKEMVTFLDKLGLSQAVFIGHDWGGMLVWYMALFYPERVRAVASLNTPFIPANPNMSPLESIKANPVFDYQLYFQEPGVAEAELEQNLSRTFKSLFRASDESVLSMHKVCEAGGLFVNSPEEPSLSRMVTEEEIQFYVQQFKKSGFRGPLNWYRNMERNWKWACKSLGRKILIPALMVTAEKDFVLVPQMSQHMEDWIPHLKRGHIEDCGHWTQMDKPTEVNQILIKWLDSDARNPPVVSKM

Compound	solubility in oil [1]	AUC [2] [µM·h]	AUCINF_D_pred [2] [kg·nM·min/mg]	LC/MS analysis, plasma level at time 0 [2]	LC/MS analysis, plasma level at time 15 [2]	LC/MS analysis, plasma level at time 30 [2]	LC/MS analysis, plasma level at time 60 [2]	LC/MS analysis, plasma level at time 120 [2]	LC/MS analysis, plasma level at time 180 [2]	LC/MS analysis, plasma level at time 240 [2]	LC/MS analysis, plasma level at time 300 [2]	LC/MS analysis, plasma level at time 480 [2]	LC/MS analysis, plasma level at time 1440 [2]	IC50 ([3]; recombinant human sEH) [nM]	LC/MS analysis, plasma level at time 360 [2]	IC50 [3] [nM]
CC(=O)N1CCC(NC(=O)Nc2ccc(OC(F)(F)F)cc2)CC1 [Compound 1555, 1-(1-Acetyl-piperidin-4-yl)-3-(4-trifluoromethoxy-phenyl)-urea]	1555 (Opaque)	6.5	13002825	0.00	16.07	45.76	100.35	216.91	260.79	268.90	302.64	320.45	266.29	–	–	–
COC(=O)c1ccc(C(=O)N2CCC(NC(=O)NC34CC5CC(CC(C5)C3)C4)CC2)cc1 [Compound 1204, 4-[4-(3-Adamantan-1-yl-ureido)-piperidine-1-carbonyl]-benzoic acid methyl ester]	1204 (Opaque)	–	–	0.00	0.00	0.19	0.34	0.11	0.00	0.00	0.00	0.00	0.00	1.1	0.00	–
CCC(=O)N1CCC(NC(=O)NC23CC4CC(CC(C4)C2)C3)CC1 [Compound 1163, N-(1-propionylpiperidin-4-yl)-N′-(adamant-1-yl)urea]	1163 (Opaque)	0.0933	18504	0.00	5.70	16.05	31.79	24.00	14.55	10.05	7.20	1.50	0.00	–	4.95	3.19
O=C(NC1CCN(C(=O)c2ccccc2)CC1)NC12CC3CC(CC(C3)C1)C2 [Compound 1159, N-(1-benzoylpiperidin-4-yl)-N′-(adamant-1-yl)urea]	1159 (Opaque)	–	–	0.00	7.26	7.82	4.58	1.39	0.60	0.00	0.00	0.00	0.00	1.3	0.00	–
COC(=O)CCCC(=O)N1CCC(NC(=O)NC23CC4CC(CC(C4)C2)C3)CC1 [Compound 1206, 5-[4-(3-Adamantan-1-yl-ureido)-piperidin-1-yl]-5-oxo-pentanoic acid methyl ester]	1206 (Opaque)	–	–	0.00	0.00	0.00	0.00	0.00	0.00	0.00	0.00	0.00	0.00	2.7	0.00	–
